The target in one assay is T1, human JAK3 (Homo sapiens, UniProt P52333).
T1 construct: The kinase domain of human JAK3 was amplified; GST (N); made in house; host or cells: Sf9 insect cells (baculovirus)
As to the kind of experiment: Alphascreen tyrosine kinase enzyme assay, JAK3 kinase domain. It is filed as biochemical. To be noted: read-out: JAK3 IC50_nM. The gist of the method:
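GST-affinity-purified human JAK3 kinase domain (baculovirus/Sf9) was pre-incubated 20 min with compound ([…]) in HEPES pH 7.5 buffer with MgCl2, vanadate and Tween 20. Biotinylated peptide substrate ([…]) and ATP were then added; phosphotyrosine was detected by AlphaScreen PY100 acceptor and streptavidin donor beads after 2–3 h.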
For orientation: Alpha assays give light when donor and acceptor beads are brought close together.

The subject of the next assay is BaF3 wild-type cells. Description: Cellular screening, BaF3 wild-type cells, Alamar Blue. To be noted: Mus musculus, 40 hr, read-out: BAF3wt IC50_nM. It is filed as cell-based. In short, it runs like this: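 Compounds, screened from dilution plates at 20 μM, were added as 10× final stocks to cells grown in DMEM/10% FCS/10% WEHI 3B conditioned medium. Cells were seeded at 1.1× final (50,000–200,000 cells/mL) and incubated 40 hr at 37° C, 5% CO2. Viability was read at 544 nm after a further 4–6 hours with Alamar Blue.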
(The colour change of resazurin is a common sign of viable cells or microbes.)

T1 sequence (P52333 822-1111 limits assumed): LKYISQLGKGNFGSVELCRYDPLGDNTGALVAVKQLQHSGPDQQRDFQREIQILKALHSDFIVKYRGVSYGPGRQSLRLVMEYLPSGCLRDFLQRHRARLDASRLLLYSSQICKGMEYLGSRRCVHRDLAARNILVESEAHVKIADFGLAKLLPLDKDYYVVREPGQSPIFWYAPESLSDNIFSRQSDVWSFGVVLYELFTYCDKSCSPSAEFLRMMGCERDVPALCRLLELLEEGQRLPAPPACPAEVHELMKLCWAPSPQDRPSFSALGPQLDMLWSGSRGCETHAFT

Regarding `C=CC(=O)Nc1cccc(Nc2nccc(Sc3cccc(OC)c3)n2)c1` [Compound 31, N-(3-(4-(3-methoxyphenylthio)pyrimidin-2-ylao)phenyl)acrylamide], the IC50 on human JAK3 is under 100 nM; in the assay on BaF3 wild-type cells, under 20000 nM.
On the same counts, the results for `C=CC(=O)Nc1ccc(Sc2ccnc(Nc3ccc(OC)cc3)n2)cc1` [Compound 74, N-(4-(2-(4-methoxyphenylao)pyrimidin-4-ylthio)phenyl)acrylamide] are under 100 nM and over 20000 nM.
In the same order, the values of `CC(=O)Nc1ccc(Sc2ccnc(Nc3ccc(N4CCC(N5CCCC5)CC4)cc3)n2)cc1` [Compound 86, N-(4-(2-(4-(4-(pyrrolidin-1-yl)piperidin-1-yl)phenylao)pyrimidin-4-ylthio)phenyl)acetamide] are under 500 nM and under 5000 nM.
On the same counts, the results for `C=CC(=O)Nc1ccc(Sc2ccnc(Nc3ccc(N4CCC(N5CCCC5)CC4)cc3)n2)cc1` [Compound 87, N-(4-(2-(4-(4-(pyrrolidin-1-yl)piperidin-1-yl)phenylao)pyrimidin-4-ylthio)phenyl)acrylamide] are under 100 nM and under 5000 nM.
For the compound `N#CCC(=O)Nc1ccc(Sc2ccnc(Nc3ccc(N4CCC(N5CCCC5)CC4)cc3)n2)cc1` [Compound 88, 2-cyano-N-(4-(2-(4-(4-(pyrrolidin-1-yl)piperidin-1-yl)phenylao)pyrimidin-4-ylthio)phenyl)acetamide], the IC50 is under 500 nM at human JAK3 and under 5000 nM with BaF3 wild-type cells.
On the same counts, the results for `C=CC(=O)N(C)c1ccc(Sc2ccnc(Nc3ccc(N4CCOCC4)cc3)n2)cc1` [Compound 91, N-methyl-N-(4-(2-(4-morpholinophenylao)pyrimidin-4-ylthio)phenyl)acrylamide] are under 100 nM and over 20000 nM.
On the same counts, the results for `C=CC(=O)Nc1ccc(Sc2ccnc(Nc3ccc(OC)c(O)c3)n2)cc1` [Compound 97] are under 100 nM and under 20000 nM.
As to `C=CC(=O)Nc1ccc(Sc2ccnc(Nc3ccc(N4CCS(=O)(=O)CC4)cc3)n2)cc1` [Compound 99, N-{4-[(2-{[4-(1,1-dioxo-1λ^6,4-thiomorpholin-4-yl)phenyl]ao}pyrimidin-4-yl)sulfanyl]phenyl}prop-2-enamide], at human JAK3, the IC50 was under 100 nM.
Turning to `COc1ccc(Nc2nccc(Sc3ccc(NC(=O)CC#N)cc3)n2)cc1OC` [Compound 101, 2-cyano-N-(4-(2-(3,4-dimethoxyphenylao)pyrimidin-4-ylthio)phenyl)acetamide], the IC50 is over 1000 nM on human JAK3 and under 1000 nM in the assay on BaF3 wild-type cells.
In the same order, the values of `CC#CC(=O)Nc1ccc(Sc2ccnc(Nc3ccc(N4CCOCC4)cc3)n2)cc1` [Compound 104, N-(4-(2-(4-morpholinophenylao)pyrimidin-4-ylthio)phenyl)but-2-ynamide] are under 100 nM and over 20000 nM.
On the same counts, the results for `C=CC(=O)Nc1ccc(Sc2ccnc(Nc3cccc(OC)c3)n2)cc1` [Compound 105, N-(4-(2-(3-methoxyphenylao)pyrimidin-4-ylthio)phenyl)acrylamide] are under 100 nM and over 20000 nM.
Regarding `COc1cc(Sc2ccnc(Nc3ccc(N4CCOCC4)cc3)n2)ccc1N` [Compound 117, 4-(4-ao-3-methoxyphenylthio)-N-(4-morpholinophenyl)pyrimidin-2-ae], the figures for the IC50 at human JAK3 and with BaF3 wild-type cells were under 500 nM and under 5000 nM, respectively.
On the same counts, the results for `C=CC(=O)Nc1ccc(Sc2ccnc(Nc3cccc(C#N)c3)n2)cc1` [Compound 118, N-(4-(2-(3-cyanophenylao)pyrimidin-4-ylthio)phenyl)acrylamide] are under 100 nM and over 20000 nM.
In the same order, the values of `C=CC(=O)Nc1cccc(Sc2ccnc(Nc3ccc(OC)cc3)n2)c1` [Compound 120, N-(3-(2-(4-methoxyphenylao)pyrimidin-4-ylthio)phenyl)acrylamide] are under 100 nM and over 20000 nM.
Regarding `C=CC(=O)Nc1ccc(Sc2nc(Nc3ccc(N4CCOCC4)cc3)ncc2C)cc1` [Compound 124, N-(4-(5-methyl-2-(4-morpholinophenylao)pyrimidin-4-ylthio)phenyl)acrylamide], the IC50 was under 100 nM at human JAK3 and over 20000 nM in the assay with BaF3 wild-type cells.
As for `CC#CC(=O)Nc1ccc(Sc2nc(Nc3ccc(N4CCOCC4)cc3)ncc2C)cc1` [Compound 125, N-(4-(5-methyl-2-(4-morpholinophenylao)pyrimidin-4-ylthio)phenyl)but-2-ynamide], the IC50 at human JAK3 was under 100 nM; with BaF3 wild-type cells, over 20000 nM.
In the same order, the values of `Cc1cnc(Nc2ccc(N3CCOCC3)cc2)nc1Sc1ccc(N)cc1` [Compound 126, 4-(4-aophenylthio)-5-methyl-N-(4-morpholinophenyl)pyrimidin-2-ae] are under 100 nM and over 20000 nM.
In the same order, the values of `c1cn(Cc2ccc(Sc3ccnc(Nc4ccc(N5CCOCC5)cc4)n3)cc2)cn1` [Compound 127, 4-(4-((1H-imidazol-1-yl)methyl)phenylthio)-N-(4-morpholinophenyl)pyrimidin-2-ae] are under 500 nM and over 20000 nM.
On the same counts, the results for `C=CC(=O)Nc1ccc(Sc2ccnc(Nc3ccc(C#N)cc3)n2)cc1` [Compound 131, N-(4-(2-(4-cyanophenylao)pyrimidin-4-ylthio)phenyl)acrylamide] are under 100 nM and under 5000 nM.
On to `CC(=O)Nc1ccc(Sc2nc(Nc3ccc(N4CCOCC4)cc3)ncc2C)cc1` [Compound 135, N-(4-(5-methyl-2-(4-morpholinophenylao)pyrimidin-4-ylthio)phenyl)acetamide], for which, on human JAK3, the IC50 was under 500 nM.
As for `Cc1cnc(Nc2ccc(N3CCOCC3)cc2)nc1Sc1ccc(C#N)cc1` [Compound 136, 4-(5-methyl-2-(4-morpholinophenylao)pyrimidin-4-ylthio)benzonitrile], the IC50 is under 500 nM on human JAK3 and over 20000 nM in the assay with BaF3 wild-type cells.
On the same counts, the results for `CCOC(=O)c1nccn1Cc1ccc(Sc2ccnc(Nc3ccc(N4CCOCC4)cc3)n2)cc1` [Compound 148, ethyl 1-(4-(2-(4-morpholinophenylao)pyrimidin-4-ylthio)benzyl)-1H-imidazole-2-carboxylate] are under 500 nM and under 20000 nM.
On the same counts, the results for `NC(=O)c1nccn1Cc1ccc(Sc2ccnc(Nc3ccc(N4CCOCC4)cc3)n2)cc1` [Compound 149, 1-(4-(2-(4-morpholinophenylao)pyrimidin-4-ylthio)benzyl)-1H-imidazole-2-carboxamide] are under 500 nM and under 5000 nM.
In the same order, the values of `N#Cc1nccc(Sc2ccc(Sc3ccnc(Nc4ccc(N5CCOCC5)cc4)n3)cc2)n1` [Compound 154, 4-(4-(2-(4-morpholinophenylao)pyrimidin-4-ylthio)phenylthio)pyrimidine-2-carbonitrile] are under 500 nM and under 5000 nM.
Regarding `C=CC(=O)Nc1ccc(Sc2nc(Nc3ccccc3O)ncc2C)cc1` [Compound 287, N-(4-(2-(2-hydroxyphenylao)-5-methylpyrimidin-4-ylthio)phenyl)acrylamide], at human JAK3, the IC50 was under 100 nM.
Same read-out and setting: the same measure for `C=CC(=O)Nc1ccc(Sc2ccnc(Nc3cccc(Cl)c3)n2)cc1` [Compound 348, N-(4-(2-(3-chlorophenylao)pyrimidin-4-ylthio)phenyl)acrylamide]: under 100 nM; for `C=CC(=O)Nc1ccc(Sc2ccnc(Nc3ccc(C(=O)OC)cc3)n2)cc1` [Compound 357, methyl 4-(4-(4-acrylamidophenylthio)pyrimidin-2-ylao)benzoate]: under 100 nM.

These data come from patent publication US8846704B2, “Thiopyrimidine-based compounds and uses thereof” (YM Biosciences Austraila Pty Ltd, priority 2007, dated 2014).
